Columns and labels:
CD8+ T cells = test: In vitro immunogenicity: in vitro T-cell priming with aAPCs loaded with peptide/MHC complexes and anti-CD28, pMHC multimer readout; type: cell-based, human; settings: for Wells positive [%]: HLA-A*02 restricted peptides, percentage of positive wells among evaluable; for donors: percentage of positive donors
Excerpt: In order to obtain information regarding the immunogenicity of the TUMAPs of the present invention, the inventors performed investigations using an in vitro T-cell priming assay based on repeated stimulations of CD8+ T cells with artificial antigen presenting cells (aAPCs) loaded with peptide/MHC complexes and anti-CD28 antibody.
In order to perform in vitro stimulations by artificial antigen presenting cells loaded with peptide-MHC complex (pMHC) and anti-CD28 antibody, the inventors first isolated CD8+ T cells from fresh HLA-A*02 leukapheresis products via positive selection using CD8 microbeads (Miltenyi Biotec, Bergisch-Gladbach, Germany) of healthy donors obtained from the University clinics Mannheim, Germany, after informed consent. PBMCs and isolated CD8+ lymphocytes were incubated in T-cell medium (TCM) until use consisting of RPMI-Glutamax (Invitrogen, Karlsruhe, Germany) supplemented with 10% heat inactivated human AB serum (PAN-Biotech, Aidenbach, Germany), 100 U/ml Penicillin/100 μg/ml Streptomycin (Cambrex, Cologne, Germany), 1 mM sodium pyruvate (CC Pro, Oberdorla, Germany), 20 μg/ml Gentamycin (Cambrex). 2.5 ng/ml IL-7 (PromoCell, Heidelberg, Germany) and 10 U/ml IL-2 (Novartis Pharma, Nürnberg, Germany) were also added to the TCM at this step. Generation of pMHC/anti-CD28 coated beads, T-cell stimulations and readout was performed in a highly defined in vitro system using four different pMHC molecules per stimulation condition and 8 different pMHC molecules per readout condition.
The purified co-stimulatory mouse IgG2a anti human CD28 Ab 9.3 (Jung et al., 1987) was chemically biotinylated using Sulfo-N-hydroxysuccinimidobiotin as recommended by the manufacturer (Perbio, Bonn, Germany). Beads used were 5.6 μm diameter streptavidin coated polystyrene particles (Bangs Laboratories, Illinois, USA).
pMHC used for positive and negative control stimulations were A*0201/MLA-001 (peptide […] (SEQ ID NO. 289) from modified Melan-A/MART-1) and A*0201/DDX5-001 ([…] from DDX5, SEQ ID NO. 290), respectively.
800.000 beads/200 μl were coated in 96-well plates in the presence of 4×12.5 ng different biotin-pMHC, washed and 600 ng biotin anti-CD28 were added subsequently in a volume of 200 μl. Stimulations were initiated in 96-well plates by co-incubating […] CD8+ T cells with 2×10^5 washed coated beads in 200 μl TCM supplemented with 5 ng/ml IL-12 (PromoCell) for 3 days at 37° C. Half of the medium was then exchanged by fresh TCM supplemented with 80 U/ml IL-2 and incubating was continued for 4 days at 37° C. This stimulation cycle was performed for a total of three times. For the pMHC multimer readout using 8 different pMHC molecules per condition, a two-dimensional combinatorial coding approach was used as previously described (Andersen et al., 2012) with minor modifications encompassing coupling to 5 different fluorochromes. Finally, multimeric analyses were performed by staining the cells with Live/dead near IR dye (Invitrogen, Karlsruhe, Germany), CD8-FITC antibody clone SK1 (BD, Heidelberg, Germany) and fluorescent pMHC multimers. For analysis, a BD LSRII SORP cytometer equipped with appropriate lasers and filters was used. Peptide specific cells were calculated as percentage of total CD8+ cells. Evaluation of multimeric analysis was done using the FlowJo software (Tree Star, Oreg., USA). In vitro priming of specific multimer+CD8+ lymphocytes was detected by comparing to negative control stimulations.
Exemplary flow cytometry results after TUMAP-specific multimer staining for 15 peptides of the invention are shown in FIGS. 3 and 6 together with corresponding negative controls.

HLA-A*02:01 = HLA-A*02:01 (Homo sapiens, UniProt P04439, D140Y/D185E/D98H/E176V/E277Q/G131W/G231S/I119V/I121R/I166T/I218V/L300P/L318F/N151K/N90K/P208A/P217A/Q86G/Q94H/R138H/R169H/T345S); test: MHC binding assay: UV-ligand exchange, ELISA on beta2m of stabilized MHC complexes (peptide exchange yield); settings: binding to HLA-A*02:01, UV-ligand exchange, β2m ELISA
Excerpt: Candidate peptides for T cell based therapies according to the present invention were further tested for their MHC binding capacity (affinity). The individual peptide-MHC complexes were produced by UV-ligand exchange, where a UV-sensitive peptide is cleaved upon UV-irradiation, and exchanged with the peptide of interest as analyzed. Only peptide candidates that can effectively bind and stabilize the peptide-receptive MHC molecules prevent dissociation of the MHC complexes. To determine the yield of the exchange reaction, an ELISA was performed based on the detection of the light chain (β2m) of stabilized MHC complexes. The assay was performed as generally described in Rodenko et al. (Rodenko et al., 2006).
96 well MAXISorp plates (NUNC) were coated over night with 2 ug/ml streptavidin in PBS at room temperature, washed 4× and blocked for 1 h at 37° C. in 2% BSA containing blocking buffer. Refolded HLA-A*02:01/MLA-001 monomers served as standards, covering the range of 15-500 ng/ml. Peptide-MHC monomers of the UV-exchange reaction were diluted 100 fold in blocking buffer. Samples were incubated for 1 h at 37° C., washed four times, incubated with 2 ug/ml HRP conjugated anti-β2m for 1 h at 37° C., washed again and detected with TMB solution that is stopped with […]. Absorption was measured at 450 nm. Candidate peptides that show a high exchange yield (preferably higher than 50%, most preferred higher than 75%) are generally preferred for a generation and production of antibodies or fragments thereof, and/or T cell receptors or fragments thereof, as they show sufficient avidity to the MHC molecules and prevent dissociation of the MHC complexes.

[1] = CD8+ T cells of healthy HLA-A*02 donors, three stimulation cycles, multimer staining

Substance | Wells positive [%] (CD8+ T cells) | also measured
66 (AMFPDTIPRV; listed as Homo sapiens) [compound 66] | + (<20% = +) | –
1 (KLQEKIQEL; listed as Homo sapiens) [compound 1] | – | Peptide exchange (MHC class I binding score, peptide exchange yield) (HLA-A*02:01): ++++ (>75% = ++++)
242 (KLQEEIPVL; listed as Homo sapiens) [compound 242] | + (<20% = +) | –
101 (SLLEVNEASSV; listed as Homo sapiens) [compound 101] | + (<20% = +) | –
9 (SLITGQDLLSV; listed as Homo sapiens) [compound 9] | + (<20% = +) | –
102 (GLYPVTLVGV; listed as Homo sapiens) [compound 102] | + (<20% = +) | –
89 (SLAETIFIV; listed as Homo sapiens) [compound 89] | + (<20% = +) | –
34 (TLNTLDINL; listed as Homo sapiens) [compound 34] | ++++ (>=70% = ++++) | –
161 (NLLDENVCL; listed as Homo sapiens) [compound 161] | – | Peptide exchange (MHC class I binding score, peptide exchange yield) (HLA-A*02:01): ++++ (>75% = ++++)
17 (GLLPSAESIKL; listed as Homo sapiens) [compound 17] | + (<20% = +) | Peptide exchange (MHC class I binding score, peptide exchange yield) (HLA-A*02:01): ++++ (>75% = ++++)
14 (YTFSGDVQL; listed as Homo sapiens) [compound 14] | + (<20% = +) | –
50 (ILLSVLHQL; listed as Homo sapiens) [compound 50] | + (<20% = +) | –
260 (ALNESLVEC; listed as Homo sapiens) [compound 260] | + (<20% = +) | –
27 (GLLGKVTSV; listed as Homo sapiens) [compound 27] | + (<20% = +) | –
92 (RLFEEVLGV; listed as Homo sapiens) [compound 92] | – | Peptide exchange (MHC class I binding score, peptide exchange yield) (HLA-A*02:01): ++++ (>75% = ++++)
246 (ALAGIVTNV; listed as Homo sapiens) [compound 246] | + (<20% = +) | –
269 (GLLDCPIFL; listed as Homo sapiens) [compound 269] | – | Peptide exchange (MHC class I binding score, peptide exchange yield) (HLA-A*02:01): ++++ (>75% = ++++)
121 (ALYVQAPTV; listed as Homo sapiens) [compound 121] | + (<20% = +) | –
263 (SIIEYLPTL; listed as Homo sapiens) [compound 263] | + (<20% = +) | –
35 (VIIKGLEEI; listed as Homo sapiens) [compound 35] | + (<20% = +) | –

Substance | Wells positive [%] (CD8+ T cells) | also measured
255 (FLMKNSDLYGA; listed as Homo sapiens) [compound 255] | + (<20% = +) | –
178 (SLVSWQLLL; listed as Homo sapiens) [compound 178] | – | Peptide exchange (MHC class I binding score, peptide exchange yield) (HLA-A*02:01): ++++ (>75% = ++++)
233 (SLFESLEYL; listed as Homo sapiens) [compound 233] | + (<20% = +) | –
254 (ALGDKFLLRV; listed as Homo sapiens) [compound 254] | + (<20% = +) | –
4 (VLFGELPAL; listed as Homo sapiens) [compound 4] | + (<20% = +) | –
234 (VLLNEILEQV; listed as Homo sapiens) [compound 234] | – | Peptide exchange (MHC class I binding score, peptide exchange yield) (HLA-A*02:01): ++++ (>75% = ++++)
267 (YLLDMPLWYL; listed as Homo sapiens) [compound 267] | + (<20% = +) | –
264 (TLHDQVHLL; listed as Homo sapiens) [compound 264] | + (<20% = +) | –
157 (ILQDGQFLV; listed as Homo sapiens) [compound 157] | + (<20% = +) | –
288 (SLYKGLLSV; listed as Homo sapiens) [compound 288] | – | donors (CD8+ T cells; [1]): ++++ (>= 70% = ++++)
84 (FLLEREQLL; listed as Homo sapiens) [compound 84] | – | Peptide exchange (MHC class I binding score, peptide exchange yield) (HLA-A*02:01): ++++ (>75% = ++++)
97 (KLFEKSTGL; listed as Homo sapiens) [compound 97] | + (<20% = +) | –
236 (KMSELQTYV; listed as Homo sapiens) [compound 236] | + (<20% = +) | –
77 (ALYGNVQQV; listed as Homo sapiens) [compound 77] | + (<20% = +) | –
29 (KMISAIPTL; listed as Homo sapiens) [compound 29] | + (<20% = +) | –
206 (GLDAFRIFL; listed as Homo sapiens) [compound 206] | – | Peptide exchange (MHC class I binding score, peptide exchange yield) (HLA-A*02:01): ++++ (>75% = ++++)
287 (KIQEILTQV; listed as Homo sapiens) [compound 287] | – | donors (CD8+ T cells; [1]): +++ (50%-69%- +++); wells (CD8+ T cells; percentage of positive wells, CD8+ T cells of healthy HLA-A*02 donors, three stimulation cycles, multimer staining): + (<20% = +)
39 (YLEDGFAYV; listed as Homo sapiens) [compound 39] | ++++ (>=70% = ++++) | –
6 (FLNAIETAL; listed as Homo sapiens) [compound 6] | – | Peptide exchange (MHC class I binding score, peptide exchange yield) (HLA-A*02:01): ++++ (>75% = ++++)
257 (KLIDHQGLYL; listed as Homo sapiens) [compound 257] | + (<20% = +) | –

— patent US11440947B2, “Peptides and combination of peptides for use in immunotherapy against various tumors” (Immatics Biotechnologies GmbH, priority 2015, dated 2022)
